Results: patent US20250059159A1, “PLPRO INHIBITORS” (SHANGHAI SYNERGY PHARMACEUTICAL SCIENCES CO., LTD., priority 2021, published 2025)

The molecules below were run against SARS-CoV-2 PLpro (Severe acute respiratory syndrome coronavirus 2 (2019-nCoV) (SARS-CoV-2), UniProt P0DTD1) (assay: PLpro enzymatic inhibition assay (IC50 value determination)). Conditions: 60 min preincubation for covalent inhibitors, 10 min for non-covalent, read-out: Inhibition of SARS-CoV-2 PLpro IC50 range.
Type: biochemical

SMILES | IC50
COC(=O)/C=C/CNC(=O)CNC(=O)CN(C(=O)Cc1ccc2c(c1)OCO2)C1CCN(C(C)c2cccc3ccccc23)CC1 (centres unmarked) [Compound 1, methyl (E)-4-(2-(2-(2-(benzo[d][1,3]dioxol-5-yl)-N-(1-(1-(naphthalen-1-yl)ethyl)piperidin-4-yl)acetamido)acetamido)acetamido)but-2-enoate] | 100 to 1000 nM
COC(=O)/C=C/CNC(=O)CNC(=O)CN(C(=O)Cc1ccc2c(c1)OCO2)C1CCN([C@H](C)c2cccc3ccccc23)CC1 [Compound 2, methyl (R,E)-4-(2-(2-(2-(benzo[d][1,3]dioxol-5-yl)-N-(1-(1-(naphthalen-1-yl)ethyl)piperidin-4-yl)acetamido)acetamido)acetamido)but-2-enoate] | 100 to 1000 nM
COC(=O)/C=C/CNC(=O)CNC(=O)CN(C(=O)Cc1cccc(F)c1)C1CCN([C@H](C)c2cccc3ccccc23)CC1 [Compound 3, methyl (R,E)-4-(2-(2-(2-(3-fluorophenyl)-N-(1-(1-(naphthalen-1-yl)ethyl)piperidin-4-yl)acetamido)acetamido)acetamido)but-2-enoate] | 100 to 1000 nM
COC(=O)/C=C/CNC(=O)CNC(=O)CN(C(=O)Cc1ccccc1)C1CCN(C(C)c2cccc3ccccc23)CC1 (centres unmarked) [Compound 4, methyl (E)-4-(2-(2-(N-(1-(1-(naphthalen-1-yl)ethyl)piperidin-4-yl)-2-phenylacetamido)acetamido)acetamido)but-2-enoate] | 100 to 1000 nM
COC(=O)/C=C/CNC(=O)CNC(=O)CN(C(=O)C1CC1)C1CCN([C@H](C)c2cccc3ccccc23)CC1 [Compound 5, methyl (R,E)-4-(2-(2-(N-(1-(1-(naphthalen-1-yl)ethyl)piperidin-4-yl)cyclopropanecarboxamido)acetamido)acetamido)but-2-enoate] | < 100 nM
COC(=O)/C=C/CNC(=O)CNC(=O)CN(C(=O)C1CCC1)C1CCN(C(C)c2cccc3ccccc23)CC1 (centres unmarked) [Compound 6, methyl (E)-4-(2-(2-(N-(1-(1-(naphthalen-1-yl)ethyl)piperidin-4-yl)cyclobutanecarboxamido)acetamido)acetamido)but-2-enoate] | < 100 nM
COC(=O)/C=C/CNC(=O)CNC(=O)CN(C(=O)C1CCC1)C1CCN([C@H](C)c2cccc3ccccc23)CC1 [Compound 7, methyl (R,E)-4-(2-(2-(N-(1-(1-(naphthalen-1-yl)ethyl)piperidin-4-yl)cyclobutanecarboxamido)acetamido)acetamido)but-2-enoate] | 100 to 1000 nM
CC(c1cccc2ccccc12)N1CCC(N(CC(=O)NCC(=O)NC/C=C/C(N)=O)C(=O)C2CCC2)CC1 (centres unmarked) [Compound 8, (E)-N-(2-((2-((4-amino-4-oxobut-2-en-1-yl)amino)-2-oxoethyl)amino)-2-oxoethyl)-N-(1-(1-(naphthalen-1-yl)ethyl)piperidin-4-yl)cyclobutanecarboxamide] | 100 to 1000 nM
CC(c1cccc2ccccc12)N1CCC(N(CC(=O)NCC(=O)NC/C=C/S(C)(=O)=O)C(=O)C2CCC2)CC1 (centres unmarked) [Compound 9, (E)-N-(2-((2-((3-(methylsulfonyl)allyl)amino)-2-oxoethyl)amino)-2-oxoethyl)-N-(1-(1-(naphthalen-1-yl)ethyl)piperidin-4-yl)cyclobutanecarboxamide] | 100 to 1000 nM
COC(=O)/C=C/CNC(=O)CNC(=O)CN(C(=O)C1CCCC1)C1CCN([C@H](C)c2cccc3ccccc23)CC1 [Compound 10, methyl (R,E)-4-(2-(2-(N-(1-(1-(naphthalen-1-yl)ethyl)piperidin-4-yl)cyclopentanecarboxamido)acetamido)acetamido)but-2-enoate] | 100 to 1000 nM
COC(=O)/C=C/CNC(=O)CNC(=O)CN(C(=O)C1CCCCC1)C1CCN([C@H](C)c2cccc3ccccc23)CC1 [Compound 11, methyl (R,E)-4-(2-(2-(N-(1-(1-(naphthalen-1-yl)ethyl)piperidin-4-yl)cyclohexanecarboxamido)acetamido)acetamido)but-2-enoate] | 100 to 1000 nM
C#CCNC(=O)CNC(=O)CNC1CCN([C@H](C)c2cccc3ccccc23)CC1 [Compound 12, (R)-2-((1-(1-(naphthalen-1-yl)ethyl)piperidin-4-yl)amino)-N-(2-oxo-2-(prop-2-yn-1-ylamino)ethyl)acetamide] | 100 to 1000 nM
COC(=O)/C=C/CNC(=O)CNC(=O)CN(C(C)=O)C1CCN(C(C)c2cccc3ccccc23)CC1 (centres unmarked) [Compound 13, methyl (E)-4-(2-(2-(N-(1-(1-(naphthalen-1-yl)ethyl)piperidin-4-yl)acetamido)acetamido)acetamido)but-2-enoate] | < 100 nM
COC(=O)/C=C/CNC(=O)CNC(=O)CN(C(=O)C(F)(F)F)C1CCN([C@H](C)c2cccc3ccccc23)CC1 [Compound 14, methyl (R,E)-4-(2-(2-(2,2,2-trifluoro-N-(1-(1-(naphthalen-1-yl)ethyl)piperidin-4-yl)acetamido)acetamido)acetamido)but-2-enoate] | 100 to 1000 nM
CCC(=O)N(CC(=O)NCC(=O)NC/C=C/C(=O)OC)C1CCN(C(C)c2cccc3ccccc23)CC1 (centres unmarked) [Compound 15, methyl (E)-4-(2-(2-(N-(1-(1-(naphthalen-1-yl)ethyl)piperidin-4-yl)propionamido)acetamido)acetamido)but-2-enoate] | < 100 nM
COC(=O)/C=C/CNC(=O)CNC(=O)CN(C(=O)CC(F)(F)F)C1CCN(C(C)c2cccc3ccccc23)CC1 (centres unmarked) [Compound 16, methyl (E)-4-(2-(2-(3,3,3-trifluoro-N-(1-(1-(naphthalen-1-yl)ethyl)piperidin-4-yl)propanamido)acetamido)acetamido)but-2-enoate] | 100 to 1000 nM
COC(=O)/C=C/CNC(=O)CNC(=O)CN(C(=O)C(C)C)C1CCN([C@H](C)c2cccc3ccccc23)CC1 [Compound 17, methyl (R,E)-4-(2-(2-(N-(1-(1-(naphthalen-1-yl)ethyl)piperidin-4-yl)isobutyramido)acetamido)acetamido)but-2-enoate] | 100 to 1000 nM
CCCC(=O)N(CC(=O)NCC(=O)NC/C=C/C(=O)OC)C1CCN([C@H](C)c2cccc3ccccc23)CC1 [Compound 18, methyl (R,E)-4-(2-(2-(N-(1-(1-(naphthalen-1-yl)ethyl)piperidin-4-yl)butyramido)acetamido)acetamido)but-2-enoate] | < 100 nM
COC(=O)/C=C/CNC(=O)CNC(=O)CN(C(=O)CC(C)C)C1CCN([C@H](C)c2cccc3ccccc23)CC1 [Compound 19, methyl (R,E)-4-(2-(2-(3-methyl-N-(1-(1-(naphthalen-1-yl)ethyl)piperidin-4-yl)butanamido)acetamido)acetamido)but-2-enoate] | < 100 nM
COC(=O)/C=C/CNC(=O)CNC(=O)CN(C1CCN([C@H](C)c2cccc3ccccc23)CC1)S(N)(=O)=O [Compound 22, methyl (R,E)-4-(2-(2-((1-(1-(naphthalen-1-yl)ethyl)piperidin-4-yl)(sulfamoyl)amino)acetamido)acetamido)but-2-enoate] | < 100 nM
COC(=O)/C=C/CNC(=O)CNC(=O)CN(C1CCN([C@H](C)c2cccc3ccccc23)CC1)S(=O)(=O)NC(=O)OC(C)(C)C [Compound 23, methyl (R,E)-4-(2-(2-((N-(tert-butoxycarbonyl)sulfamoyl)(1-(1-(naphthalen-1-yl)ethyl)piperidin-4-yl)amino)acetamido)acetamido)but-2-enoate] | 100 to 1000 nM
COC(=O)/C=C/CNC(=O)CNC(=O)CNC1CCN([C@H](C)c2cccc3ccccc23)CC1 [Compound 24, methyl (R,E)-4-(2-(2-((1-(1-(naphthalen-1-yl)ethyl)piperidin-4-yl)amino)acetamido)acetamido)but-2-enoate] | 100 to 1000 nM
COC(=O)/C=C/CNC(=O)CNC(=O)CN(C)C1CCN([C@H](C)c2cccc3ccccc23)CC1 [Compound 25, methyl (R,E)-4-(2-(2-(methyl(1-(1-(naphthalen-1-yl)ethyl)piperidin-4-yl)amino)acetamido)acetamido)but-2-enoate] | < 100 nM
COC(=O)/C=C/CNC(=O)CNC(=O)[C@H](CN)NC1CCN([C@H](C)c2cccc3ccccc23)CC1 [Compound 26, methyl (E)-4-(2-((S)-3-amino-2-((1-((R)-1-(naphthalen-1-yl)ethyl)piperidin-4-yl)amino)propanamido)acetamido)but-2-enoate] | 100 to 1000 nM
COC(=O)/C=C/CNC(=O)CNC(=O)[C@H](CNC(=O)OC(C)(C)C)NC1CCN([C@H](C)c2cccc3ccccc23)CC1 [Compound 27, methyl (S,E)-2,2-dimethyl-7-((1-((R)-1-(naphthalen-1-yl)ethyl)piperidin-4-yl)amino)-4,8,11-trioxo-3-oxa-5,9,12-triazahexadec-14-en-16-oate] | 1000 to 10000 nM
COC(=O)/C=C/CNC(=O)CNC(=O)[C@@H](C)NC1CCN([C@H](C)c2cccc3ccccc23)CC1 [Compound 28, methyl (E)-4-(2-((R)-2-((1-((R)-1-(naphthalen-1-yl)ethyl)piperidin-4-yl)amino)propanamido)acetamido)but-2-enoate] | 1000 to 10000 nM
COC(=O)/C=C/CNC(=O)CNC(=O)C[C@H](NCc1ccc2c(c1)OCO2)C1CCN(C(C)c2cccc3ccccc23)CC1 (stereo partly drawn) [Compound 29, methyl (E)-4-(2-((3S)-3-((benzo[d][1,3]dioxol-5-ylmethyl)amino)-3-(1-(1-(naphthalen-1-yl)ethyl)piperidin-4-yl)propanamido)acetamido)but-2-enoate] | 100 to 1000 nM
C#CCNC(=O)CCNC(=O)CN(C1CCN([C@H](C)c2cccc3ccccc23)CC1)S(C)(=O)=O [Compound 57, (R)-3-(2-(N-(1-(1-(naphthalen-1-yl)ethyl)piperidin-4-yl)methylsulfonamido)acetamido)-N-(prop-2-yn-1-yl)propanamide] | 100 to 1000 nM
C[C@H](c1cccc2ccccc12)N1CCC(N(CC(=O)NCC(=O)NC/C=C/S(C)(=O)=O)S(C)(=O)=O)CC1 [Compound 59, (R,E)-N-(3-(methylsulfonyl)allyl)-2-(2-(N-(1-(1-(naphthalen-1-yl)ethyl)piperidin-4-yl)methylsulfonamido)acetamido)acetamide] | 100 to 1000 nM
